Results published in US20230356105A1, “TETRAAZADODECANE BASED CHELATING AGENTS FOR SEPARATION OF RARE EARTH ELEMENTS AND METHOD THEREFOR” (Ustav Organicke Chemie a Biochemie AV CR V.V.I., priority 2020, published 2023).
“And” between values parts separate entries of the source, which are not always exact repeats. Equal values may be shown once.

Experiments:
[1] = Separation of Nd/Pr/Tb/Dy mixture by repeated precipitation using L5 and α-HIBA (Example 24); type: physicochemical
Method: The reaction mixture was prepared by pipetting the following aqueous stock solutions into a 20 mL glass vial: • 1. 476 μL 246 mM aqueous chelator L5 • 2. 606 μL 175.5 mM aqueous LnCl3 solution (from a stock solution containing a mixture of Ln =Nd, Pr, Tb, and Dy, in a ratio of 3.3:1:1:1, Nd:Pr:Tb:Dy) • 3. 41.6 μL 2560 mM aqueous α-HIBA pH=6.5 • 4. 4103 μL water • 5. 1733 μL 3.0 M MOPS pH=7
The total reaction volume was 7.0 mL. Three identical reaction mixtures were prepared. A PTFE-coated stir bar was added to each vial; the vials were capped and stirred on a magnetic stirrer at room temperature. After 18 hours, a 200 μL aliquot of the reaction mixture was taken from each vial. This was centrifuged in a 2 mL plastic Eppendorf centrifuge tube, and the supernatant was carefully pipetted from the sample and transferred to a new set of tubes. The precipitate was dissolved by addition of 200 μL 1 M HCl, and the absolute concentration of each of the four lanthanides (Nd, Pr, Tb, and Dy) in each sample of the supernatant and precipitate was determined by ICP-OES. The remaining reaction mixtures from each vial were individually centrifuged in 15 mL plastic centrifuge tubes to separate the precipitate from the supernatant. The supernatant was discarded. Each precipitate was dissolved by addition of 2 mL 1 M HCl and heating to 80° C. for 1 hour. After dissolution, the acidic solutions were transferred to clean 20 mL glass vials with one PTFE-coated magnetic stir bar each. To each solution was added, in order: 2037 μL water, 40.4 μL 2560 mM aqueous α-HIBA pH =6.5, 1723 μL 3 M aqueous MOPS pH=7, and 1000 μL 2 M NaOH. These solutions were capped and stirred on a magnetic stirrer at room temperature. After 18 hours, a 200 μL aliquot of the reaction mixture was again taken from each and treated for ICP-OES analysis as before. Once again, the remaining reaction mixtures from each vial were individually centrifuged in 15 mL plastic centrifuge tubes to separate the precipitate from the supernatant. The supernatant was discarded. Each precipitate was dissolved by addition of 1 mL 1M HCl and heating to 80° C. for 1 hour. After dissolution, the acidic solutions were transferred to clean 20 mL glass vials with one PTFE-coated magnetic stir bar each. To each solution was added, in order: 3376 μL water, 51.6 μL 2560 mM aqueous α-HIBA pH =6.5, 1672 μL 3 M aqueous MOPS pH=7, and 500 μL 2 M NaOH. These solutions were capped and stirred on a magnetic stirrer at room temperature. After 18 hours, a final 200 μL aliquot of the reaction mixture was again taken from each vial and treated for ICP-OES analysis as before.

[2] = Separation of Nd/Pr/Tb/Dy mixture by precipitation using L5 (Example 21); type: physicochemical; settings: for precipitate after 20 hrs: dissolved to 500 μL; for precipitate after 20 hrs composition / solution after 20 hrs composition: percent molar
Method: Stock solutions were pipetted into 4 mL glass vials to prepare reaction mixtures with concentrations as follows: • 1. 38.5 mM (1.1 eq) chelator L5 • 2. 35 mM (1 eq) total LnCl3 content (from a stock solution containing a mixture of Ln=Nd, Pr, Tb, and Dy, in a ratio of 3.3:1:1:1, Nd:Pr:Tb:Dy) • 3. 1750 mM (50 eq) MOPS pH=7
The total reaction volume was 3.2 mL. A PTFE-coated stir bar was added to this vial, and the vial was capped and stirred with the temperature maintained at 40° C. by use of an aluminium heating block on a magnetic stirrer. After 20 hours, a 500 μL aliquot of the reaction mixture was taken from the vial. This was centrifuged in a 2 mL plastic Eppendorf centrifuge vial, and the supernatant was carefully pipetted from this and transferred to a new set of tubes. The precipitate was dissolved by addition of 500 μL 1 M HCl, and the absolute concentration of Nd, Pr, Tb, and Dy in both the supernatants and precipitates was determined by ICP-OES.
The percent molar composition of each phase is also provided, showing the minimal selectivity in precipitation under these conditions.

[3] = series A (first precipitation, 18 hours), individual samples A1-A3
[4] = series B (repeated precipitation), individual samples B1-B3
[5] = series C (repeated precipitation), individual samples C1-C3

## O=C(O)CN1CCN(CC(=O)O)CCN(Cc2cccc3ccccc23)CCN(CC(=O)O)CC1 [L5, 2,2′,2″-(10-(naphthalene-1-ylmethyl)-1,4,7,10-tetraazacyklododekane-1,4,7-triyl)triacetic acid]
[1]; series A
  avg composition of precipitate, Dy: 6.3%
  avg composition of precipitate, Nd: 67.2%
  avg composition of precipitate, Pr: 18.2%
  avg composition of precipitate, Tb: 8.2%
  avg composition of supernatant, Dy: 43.8%
  avg composition of supernatant, Nd: 21.4%
  avg composition of supernatant, Pr: 3.2%
  avg composition of supernatant, Tb: 31.6%
[1]; [3]
  precipitate concentration Dy: 0.81 mM and 0.82 mM (2×)
  precipitate concentration Nd: 8.82 mM and 8.69 mM and 8.55 mM
  precipitate concentration Pr: 2.39 mM and 2.35 mM and 2.32 mM
  precipitate concentration Tb: 1.05 mM and 1.07 mM and 1.06 mM
  supernatant concentration Dy: 1.69 mM and 1.65 mM and 1.68 mM
  supernatant concentration Nd: 0.85 mM and 0.90 mM and 0.70 mM
  supernatant concentration Pr: 0.12 mM and 0.15 mM and 0.09 mM
  supernatant concentration Tb: 1.23 mM and 1.19 mM and 1.20 mM
[1]; series A avg
  precipitate concentration Dy, avg: 0.81 mM
  precipitate concentration Nd, avg: 8.68 mM
  precipitate concentration Pr, avg: 2.35 mM
  precipitate concentration Tb, avg: 1.06 mM
  supernatant concentration Dy, avg: 1.67 mM
  supernatant concentration Nd, avg: 0.82 mM
  supernatant concentration Pr, avg: 0.12 mM
  supernatant concentration Tb, avg: 1.21 mM
[1]; series B
  avg composition of precipitate, Dy: 2.0%
  avg composition of precipitate, Nd: 73.4%
  avg composition of precipitate, Pr: 20.6%
  avg composition of precipitate, Tb: 4.0%
  avg composition of supernatant, Dy: 28.7%
  avg composition of supernatant, Nd: 34.0%
  avg composition of supernatant, Pr: 3.1%
  avg composition of supernatant, Tb: 34.1%
[1]; [4]
  precipitate concentration Dy: 0.20 mM and 0.21 mM and 0.22 mM
  precipitate concentration Nd: 7.54 mM and 7.82 mM and 8.02 mM
  precipitate concentration Pr: 2.11 mM and 2.20 mM and 2.24 mM
  precipitate concentration Tb: 0.41 mM and 0.42 mM and 0.45 mM
  supernatant concentration Dy: 0.50 mM and 0.52 mM and 0.54 mM
  supernatant concentration Nd: 0.65 mM and 0.60 mM and 0.59 mM
  supernatant concentration Pr: 0.06 mM and 0.05 mM (2×)
  supernatant concentration Tb: 0.60 mM and 0.61 mM and 0.64 mM
[1]; series B avg
  precipitate concentration Dy, avg: 0.21 mM
  precipitate concentration Nd, avg: 7.80 mM
  precipitate concentration Pr, avg: 2.18 mM
  precipitate concentration Tb, avg: 0.42 mM
  supernatant concentration Dy, avg: 0.52 mM
  supernatant concentration Nd, avg: 0.61 mM
  supernatant concentration Pr, avg: 0.06 mM
  supernatant concentration Tb, avg: 0.62 mM
[1]; series C
  avg composition of precipitate, Dy: 0.5%
  avg composition of precipitate, Nd: 75.6%
  avg composition of precipitate, Pr: 22.1%
  avg composition of precipitate, Tb: 1.8%
  avg composition of supernatant, Dy: 10.4%
  avg composition of supernatant, Nd: 61.4%
  avg composition of supernatant, Pr: 6.5%
  avg composition of supernatant, Tb: 21.6%
[1]; [5]
  precipitate concentration Dy: 0.03 mM and 0.04 mM (2×)
  precipitate concentration Nd: 6.34 mM and 6.40 mM and 6.17 mM
  precipitate concentration Pr: 1.85 mM and 1.87 mM and 1.80 mM
  precipitate concentration Tb: 0.15 mM (2×) and 0.16 mM
  supernatant concentration Dy: 0.12 mM (2×) and 0.13 mM
  supernatant concentration Nd: 0.67 mM and 0.68 mM and 0.83 mM
  supernatant concentration Pr: 0.07 mM (2×) and 0.10 mM
  supernatant concentration Tb: 0.24 mM and 0.25 mM and 0.27 mM
[1]; series C avg
  precipitate concentration Dy, avg: 0.04 mM
  precipitate concentration Nd, avg: 6.30 mM
  precipitate concentration Pr, avg: 1.84 mM
  precipitate concentration Tb, avg: 0.15 mM
  supernatant concentration Dy, avg: 0.12 mM
  supernatant concentration Nd, avg: 0.73 mM
  supernatant concentration Pr, avg: 0.08 mM
  supernatant concentration Tb, avg: 0.26 mM
[2]; Ln=Dy
  solution after 20 hrs: 0.58 mM
  precipitate after 20 hrs: 4.69 mM
  precipitate after 20 hrs composition: 14.9%
  solution after 20 hrs composition: 17.1%
[2]; Ln=Nd
  solution after 20 hrs: 1.85 mM
  precipitate after 20 hrs: 16.68 mM
  precipitate after 20 hrs composition: 53.0%
  solution after 20 hrs composition: 54.3%
[2]; Ln=Pr
  solution after 20 hrs: 0.47 mM
  precipitate after 20 hrs: 4.85 mM
  precipitate after 20 hrs composition: 15.4%
  solution after 20 hrs composition: 13.9%
[2]; Ln=Tb
  solution after 20 hrs: 0.50 mM
  precipitate after 20 hrs: 5.28 mM
  precipitate after 20 hrs composition: 16.8%
  solution after 20 hrs composition: 14.7%
